Experimental findings from patent US12692254B2, “Benzimidazole inhibitors of PAD enzymes” (BRISTOL-MYERS SQUIBB COMPANY, priority 2018, dated 2026) are described below.

For the experiment, the target named is human PAD4 (hPAD4) (Homo sapiens, UniProt Q9UM07). In words: RFMS human PAD4 functional assay (rapid-fire mass spectrum). It counts as biochemical. The conditions noted are these: 5 nM hPAD4 enzyme, 250 μM BAEE, 50 μM Calcium; 30 min preincubation, 90 min reaction at 37° C. An outline of the steps: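 PAD4 (10 nM) preincubated 30 min with compound (top final 50 μM), then BAEE substrate added in pH 7.5 HEPES buffer with DTT, 50 μM calcium, TPEN; 90 min at 37° C. After TCA quench, citrulline derivatized with phenyl glyoxal (4 mM final, 30 min, 37° C) and quantified by RapidFire MS against internal standard.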
Chain of human PAD4 (hPAD4) (Q9UM07 whole entry): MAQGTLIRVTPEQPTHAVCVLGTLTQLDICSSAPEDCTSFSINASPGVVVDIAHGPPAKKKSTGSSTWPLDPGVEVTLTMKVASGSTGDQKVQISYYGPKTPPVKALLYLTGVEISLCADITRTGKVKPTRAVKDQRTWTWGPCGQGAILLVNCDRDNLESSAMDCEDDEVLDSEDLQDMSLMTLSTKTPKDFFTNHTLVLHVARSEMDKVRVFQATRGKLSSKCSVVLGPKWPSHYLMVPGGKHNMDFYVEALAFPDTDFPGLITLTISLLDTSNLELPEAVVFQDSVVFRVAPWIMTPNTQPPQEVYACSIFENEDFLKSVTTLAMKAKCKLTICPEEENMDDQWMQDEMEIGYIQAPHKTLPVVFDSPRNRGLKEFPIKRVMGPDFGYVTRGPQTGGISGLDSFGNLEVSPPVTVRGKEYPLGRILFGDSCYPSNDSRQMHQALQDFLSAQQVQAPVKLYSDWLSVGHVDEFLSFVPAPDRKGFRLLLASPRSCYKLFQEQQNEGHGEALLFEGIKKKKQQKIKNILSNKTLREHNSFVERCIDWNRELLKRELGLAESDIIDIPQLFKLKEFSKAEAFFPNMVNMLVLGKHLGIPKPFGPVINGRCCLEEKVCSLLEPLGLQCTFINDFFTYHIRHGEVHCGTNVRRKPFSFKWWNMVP

Usually IC50 stands for the midpoint of a concentration-inhibition curve. Take `COC(=O)Cn1cc(Cn2c(-c3cc4cccnc4n3CC3CC3)nc3cc(C(=O)N4CC5CCC4[C@@H]5N)cc(OC)c32)cn1` (stereo partly drawn) [Example 411, methyl 2-[4-({5-[(7R)-7-amino-2-azabicyclo[2.2.1]heptane-2-carbonyl]-2-[1-(cyclopropylmethyl)-1H-pyrrolo[2,3-b]pyridin-2-yl]-7-methoxy-1H-1,3-benzodiazol-1-yl}methyl)-1H-pyrazol-1-yl]acetate]: the IC50 came out at 55 nM.

As for `COc1cc(C(=O)N2CC3CCC2[C@@H]3N)cc2nc(-c3cc4ccccc4n3CC3CC3)n(Cc3cn[nH]n3)c12` (stereo partly drawn) [Example 490, (7R)-2-{2-[1-(cyclopropylmethyl)-1H-indol-2-yl]-7-methoxy-1-[(2H-1,2,3-triazol-4-yl)methyl]-1H-1,3-benzodiazole-5-carbonyl}-2-azabicyclo[2.2.1]heptan-7-amine], the 50% inhibitory concentration (IC50) was 58 nM.

With `COc1cc(C(=O)N2C[C@H](N)C[C@@H](F)C2)cc2nc(-c3cc4cccnc4n3CC3CC3)n(Cc3cnn(-c4cncc(C#N)c4)c3)c12` [Example 391, 5-[4-({5-[(3R,5R)-3-amino-5-fluoropiperidine-1-carbonyl]-2-[1-(cyclopropylmethyl)-1H-pyrrolo[2,3-b]pyridin-2-yl]-7-methoxy-1H-1,3-benzodiazol-1-yl}methyl)-1H-pyrazol-1-yl]pyridine-3-carbonitrile], the IC50 was found to be 47 nM.

For the compound `COC(=O)N1CC(n2c(-c3cc4cccnc4n3CC3CC3)nc3cc(C(=O)N4C[C@H]5CC[C@@H]4[C@@H]5N)cc(OC)c32)C1` [Example 188, methyl 3-{5-[(1R,4R,7R)-7-amino-2-azabicyclo[2.2.1]heptane-2-carbonyl]-2-[1-(cyclopropylmethyl)-1H-pyrrolo[2,3-b]pyridin-2-yl]-7-methoxy-1H-1,3-benzodiazol-1-yl}azetidine-1-carboxylate], the half-maximal inhibitory concentration (IC50) amounted to 393 nM.

Consider `COc1cc(C(=O)N2CC3CCC2[C@@H]3N)cc2nc(-c3cc4ccccc4n3CC3CC3)n(Cc3cnn(-c4cccc(O)n4)c3)c12` (stereo partly drawn) [Example 388, 6-[4-({5-[(7R)-7-amino-2-azabicyclo[2.2.1]heptane-2-carbonyl]-2-[1-(cyclopropylmethyl)-1H-indol-2-yl]-7-methoxy-1H-1,3-benzodiazol-1-yl}methyl)-1H-pyrazol-1-yl]pyridin-2-ol], for which the 50% inhibitory concentration (IC50) was found to be 43 nM.

In the case of `COc1cc(C(=O)N2C[C@H]3CC[C@@H]2[C@@H]3N)cc2nc(-c3cc4ccccc4n3CC3CC3)n(CC3CN(C(=O)c4cccc(F)c4)C3)c12` [Example 169, (1R,4R,7R)-2-{2-[1-(cyclopropylmethyl)-1H-indol-2-yl]-1-{[1-(3-fluorobenzoyl)azetidin-3-yl]methyl}-7-methoxy-1H-1,3-benzodiazole-5-carbonyl}-2-azabicyclo[2.2.1]heptan-7-amine], the IC50 was determined as 33 nM.

For the compound `COc1cc(C(=O)N2C[C@H]3CC[C@@H]2[C@@H]3N)cc2nc(-c3cc4cccnc4n3CC3CC3)n(CC3CN(c4nccs4)C3)c12` [Example 47, (1R,4R,7R)-2-{2-[1-(cyclopropylmethyl)-1H-pyrrolo[2,3-b]pyridin-2-yl]-7-methoxy-1-{[1-(1,3-thiazol-2-yl)azetidin-3-yl]methyl}-1H-1,3-benzodiazole-5-carbonyl}-2-azabicyclo[2.2.1]heptan-7-amine], the IC50 is 119 nM.
